Source: patent US20060130172A1, “Gene encoding resistance to acetolactate synthase-inhibiting herbicides” (priority 2003, published 2006)

Columns and labels:
[1] = test system: R11-AMACH smooth pigweed; assay: Greenhouse screen of ALS-inhibiting herbicides on resistant smooth pigweed biotype; assay type: in vivo, Amaranthus hybridus L.; settings: 3 WAT; for Biomass Reduction: compared to untreated plant biomass; for Biomass: plant dry weight; for Visual Control: scale 0-99%
Description: (§1) Seeds from a smooth pigweed (Aniaranthus hybridus L.) population (R11-AMACH) were collected from a field in southeastern Pennsylvania where extreme ALS-inhibitor herbicide selection pressure was imposed over a several year period within continuous soybean production. R11-AMACH was selected naturally with ALS-inhibiting herbicides representative of the SU, IMI, and TP herbicide chemistries.
(§2) To establish levels and patterns of ALS resistance, R11-AMACH and an ALS susceptible smooth pigweed biotype (S-AMACH) were screened in the greenhouse with various rates of the ALS-inhibiting herbicides, chlorimuron (SU), thifensulfuron (SU), imazethapyr (IMI), pyrithiobac (POB), and cloransulam-methyl (TP). Rates evaluated were based on a log10 scale that included 0, 1/100×, 1/10×, 1×, 10×, and 100×, where 1× corresponds to the normal use rate in the field. R11-AMACH responded differently to the rate increase as compared to S-AMACH. […] Visual control, height, biomass, and biomass reduction are presented separately for chlorimuron (Table 3), thifensulfuron (Table 4), imazethapyr (Table 5), pyrithiobac (Table 6), and cloransulam (Table 7). Evaluations and measurements were recorded 3 weeks after herbicide treatment (WAT). Visual control was based on a scale of 0-99%, where 0% represents no control and 99% represents complete control. Biomass represents plant dry weights recorded several days after plants were harvested. Biomass reduction was calculated based on the amount of biomass reduced by herbicide treatment compared to the untreated plant biomass.

[2] = test system: S-AMACH smooth pigweed; assay: Greenhouse screen of ALS-inhibiting herbicides on susceptible smooth pigweed biotype; assay type: in vivo, Amaranthus hybridus L.; settings: 3 WAT; for Biomass Reduction: compared to untreated plant biomass; for Biomass: plant dry weight; for Visual Control: scale 0-99%
Description: as §1, §2

[3] = rate 1/100× (1× = normal use rate in the field)

| SMILES | Height ([1]; rate 1/10×) | Biomass Reduction ([1]; rate 1/10×) | Biomass ([1]; rate 1/10×) | Visual Control ([1]; rate 1/10×) | Visual Control [1, 3] | Height ([1]; rate 1/100×) | Biomass Reduction ([1]; rate 1/100×) | Biomass ([1]; rate 1/100×) | Visual Control ([1]; rate 1× (normal use rate)) | Height ([1]; rate 1×) | Biomass Reduction ([1]; rate 1×) | Biomass ([1]; rate 1×) | Height ([1]; rate 10×) | Biomass Reduction ([1]; rate 10×) | Biomass ([1]; rate 10×) | Visual Control ([1]; rate 10×) | Height ([1]; rate 100×) | Biomass Reduction ([1]; rate 100×) | Biomass ([1]; rate 100×) | Visual Control ([1]; rate 100×) | also measured |
| --- | --- | --- | --- | --- | --- | --- | --- | --- | --- | --- | --- | --- | --- | --- | --- | --- | --- | --- | --- | --- | --- |
| CCc1cnc(C2=NC(C)(C(C)C)C(=O)N2)c(C(=O)O)c1 (centres unmarked) [imazethapyr, 2-[4,5-dihydro-4-methyl-4-(1-methylethyl)-5-oxo-1H-imidazol-2-yl]-5-ethyl-3-pyridinecarboxylic acid] | 28.0 cm | 21.1% | 3.00 g | 9% | 2% | 32.8 cm | −8.2% | 4.11 g | 16% | 20.3 cm | 31.0% | 2.62 g | 6.8 cm | 86.8% | 0.50 g | 62% | 3.3 cm | 96.1% | 0.15 g | 95% | Height ([2]; rate 1/10×): 10.3 cm; Biomass Reduction ([2]; rate 1/10×): 81.6%; Biomass ([2]; rate 1/10×): 0.63 g; Visual Control ([2]; rate 1/10×): 58%; Height ([2]; rate 1/100×): 25.3 cm; Biomass Reduction ([2]; rate 1/100×): 42.3%; Biomass ([2]; rate 1/100×): 1.98 g; Visual Control ([2]; rate 1/100×): 12%; Visual Control ([2]; rate 1× (normal use rate)): 97%; Height ([2]; rate 1×): 2.3 cm; Biomass Reduction ([2]; rate 1×): 98.3%; Biomass ([2]; rate 1×): 0.06 g; Height ([2]; rate 10×): 0.3 cm; Biomass Reduction ([2]; rate 10×): 97.1%; Biomass ([2]; rate 10×): 0.10 g; Visual Control ([2]; rate 10×): 99%; Height ([2]; rate 100×): 2.3 cm; Biomass Reduction ([2]; rate 100×): 98.3%; Biomass ([2]; rate 100×): 0.06 g; Visual Control ([2]; rate 100×): 95% |
| COc1nc(C)nc(NC(=O)NS(=O)(=O)c2ccsc2C(=O)O)n1 [thifensulfuron, 3-[[[[(4-methoxy-6-methyl-1,3,5-triazin-2-yl)amino]carbonyl]-amino]sulfonyl]-2-thiophenecarboxylic acid] | 32.5 cm | −17.1% | 4.45 g | 9% | 4% | 36.0 cm | −10.8% | 4.21 g | 22% | 23.0 cm | 8.4% | 3.48 g | 15.8 cm | 40.8% | 2.25 g | 38% | 6.8 cm | 84.7% | 0.58 g | 64% | Height ([2]; rate 1/10×): 11.0 cm; Biomass Reduction ([2]; rate 1/10×): 75.2%; Biomass ([2]; rate 1/10×): 0.85 g; Visual Control ([2]; rate 1/10×): 47%; Height ([2]; rate 1/100×): 25.0 cm; Biomass Reduction ([2]; rate 1/100×): 48.7%; Biomass ([2]; rate 1/100×): 1.76 g; Visual Control ([2]; rate 1/100×): 22%; Visual Control ([2]; rate 1× (normal use rate)): 98%; Height ([2]; rate 1×): 2.0 cm; Biomass Reduction ([2]; rate 1×): 98.0%; Biomass ([2]; rate 1×): 0.07 g; Height ([2]; rate 10×): 0.3 cm; Biomass Reduction ([2]; rate 10×): 98.8%; Biomass ([2]; rate 10×): 0.04 g; Visual Control ([2]; rate 10×): 99%; Height ([2]; rate 100×): 0.5 cm; Biomass Reduction ([2]; rate 100×): 99.1%; Biomass ([2]; rate 100×): 0.03 g; Visual Control ([2]; rate 100×): 99% |
| COc1cc(Cl)nc(NC(=O)NS(=O)(=O)c2ccccc2C(=O)O)n1 [chlorimuron, 2-[[[[(4-chloro-6-methoxy-2-pyrimidinyl)-amino]carbonyl]amino]-sulfonyl]benzoic acid] | 26.5 cm | 3.7% | 3.66 g | 6% | 5% | 23.5 cm | 10.0% | 3.42 g | 15% | 21.8 cm | 3.5% | 3.67 g | 23.5 cm | 17.1% | 3.15 g | 18% | 14.8 cm | 56.8% | 1.64 g | 39% | Height ([2]; rate 1/10×): 14.3 cm; Biomass Reduction ([2]; rate 1/10×): 52.0%; Biomass ([2]; rate 1/10×): 1.65 g; Visual Control ([2]; rate 1/10×): 20%; Height ([2]; rate 1/100×): 27.8 cm; Biomass Reduction ([2]; rate 1/100×): 30.9%; Biomass ([2]; rate 1/100×): 2.37 g; Visual Control ([2]; rate 1/100×): 9%; Visual Control ([2]; rate 1× (normal use rate)): 81%; Height ([2]; rate 1×): 4.8 cm; Biomass Reduction ([2]; rate 1×): 95.8%; Biomass ([2]; rate 1×): 0.14 g; Height ([2]; rate 10×): 1.0 cm; Biomass Reduction ([2]; rate 10×): 98.6%; Biomass ([2]; rate 10×): 0.05 g; Visual Control ([2]; rate 10×): 99%; Height ([2]; rate 100×): 1.3 cm; Biomass Reduction ([2]; rate 100×): 96.7%; Biomass ([2]; rate 100×): 0.11 g; Visual Control ([2]; rate 100×): 99% |
| CCOc1nc(F)cc2nc(S(=O)(=O)Nc3c(Cl)cccc3C(=O)OC)nn12 [cloransulammethyl] | 34.5 cm | 24.7% | 8.16 g | 23% | 0% | 47.8 cm | 0.5% | 10.78 g | 16% | 37.6 cm | 30.8% | 7.49 g | 32.0 cm | 40.5% | 6.44 g | 39% | 12.2 cm | 75.3% | 2.68 g | 63% | Height ([2]; rate 1/10×): 3.6 cm; Biomass Reduction ([2]; rate 1/10×): 97.1%; Biomass ([2]; rate 1/10×): 0.25 g; Visual Control ([2]; rate 1/10×): 91%; Height ([2]; rate 1/100×): 0.7 cm; Biomass Reduction ([2]; rate 1/100×): 99.8%; Biomass ([2]; rate 1/100×): 0.02 g; Visual Control ([2]; rate 1/100×): 97%; Visual Control ([2]; rate 1× (normal use rate)): 96%; Height ([2]; rate 1×): 1.3 cm; Biomass Reduction ([2]; rate 1×): 99.1%; Biomass ([2]; rate 1×): 0.08 g; Height ([2]; rate 10×): 0.0 cm; Biomass Reduction ([2]; rate 10×): 100.0%; Biomass ([2]; rate 10×): 0.00 g; Visual Control ([2]; rate 10×): 99%; Height ([2]; rate 100×): 0.0 cm; Biomass Reduction ([2]; rate 100×): 100.0%; Biomass ([2]; rate 100×): 0.00 g; Visual Control ([2]; rate 100×): 99% |
| COc1cc(OC)nc(Sc2cccc(Cl)c2C(=O)O)n1 [pyrithiobac, 2-chloro-6-[(4,6-dimethoxy-2-pyrimidinyl)thio]benzoic acid] | 22.0 cm | 36.3% | 2.42 g | 21% | 7% | 26.5 cm | 26.8% | 2.78 g | 30% | 17.8 cm | 37.4% | 2.38 g | 11.0 cm | 71.8% | 1.07 g | 48% | 2.5 cm | 98.2% | 0.07 g | 97% | Height ([2]; rate 1/10×): 8.8 cm; Biomass Reduction ([2]; rate 1/10×): 89.2%; Biomass ([2]; rate 1/10×): 0.37 g; Visual Control ([2]; rate 1/10×): 59%; Height ([2]; rate 1/100×): 21.8 cm; Biomass Reduction ([2]; rate 1/100×): 49.6%; Biomass ([2]; rate 1/100×): 1.73 g; Visual Control ([2]; rate 1/100×): 16%; Visual Control ([2]; rate 1× (normal use rate)): 99%; Height ([2]; rate 1×): 2.0 cm; Biomass Reduction ([2]; rate 1×): 98.0%; Biomass ([2]; rate 1×): 0.07 g; Height ([2]; rate 10×): 1.8 cm; Biomass Reduction ([2]; rate 10×): 96.5%; Biomass ([2]; rate 10×): 0.12 g; Visual Control ([2]; rate 10×): 99%; Height ([2]; rate 100×): 0.5 cm; Biomass Reduction ([2]; rate 100×): 98.8%; Biomass ([2]; rate 100×): 0.04 g; Visual Control ([2]; rate 100×): 99% |
